Data: the supplement of paper PMC11208160

Assay: recombinant UMI read abundance after kanamycin selection (control-corrected) (log10(CPM+1)); higher = more efficient recombination; extreme values may be limits of the assay; sequences stand for … in AGTGCAGAGAAAATCGGCCAGTTTTCTCTGCCTGCAGTCCGCATGCCGTGGGACCCCTTGGGTTCTAACCTGTTGCCTAGATTTATGCAGCGGACTGCCTTTCTCCCAAAGTGATAAACCGG…AGGTTGGTTTCACT; site = the 11-nt donor
Procedure, shortened: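 Pooled Escherichia coli screen of donor and donor-binding-loop pairs for the IS621 bridge recombinase. Each pair sits with a 12-nt UMI on a plasmid carrying a promoterless kanamycin gene. The library was co-electroporated with a target plasmid encoding a fixed target and T7-inducible recombinase, then plated with IPTG (0.07 mM) plus kanamycin, or unselected, each in two replicates. Recombinant UMIs were PCR-amplified across the donor–target junction and sequenced. Counts became CPM, averaged over replicates, scaled by control-derived factors and reported as log10(CPM+1).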
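Also: IS621 bridge recombinase in Escherichia coli cells against a fixed T5 target plasmid.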

Sequence | recombinant UMI read abundance (log10)
TGCTAGGCATGGACCGGTTTTCCCGGTAATCCGTATTTGGT (site TGCTAGTCTAC) | 0.00544
TGCTAGGCATGGACCGGTTTTCCCGGTAATCCGTATTTGGT (site TGCTATGCTAC) | 0.00951
TGCTAGGCATGGACCGGTTTTCCCGGTAATCCGTATTTGGT (site TGCTCGGCTAC) | 0.0253
TGCTAGGCATGGACCGGTTTTCCCGGTAATCCGTATTTGGT (site TGCTGGGCTAC) | 0.0136
TGCTAGGCATGGACCGGTTTTCCCGGTAATCCGTATTTGGT (site TGCTTGGCTAC) | 0.0132
TGCTAGGCATGGACCGGTTTTCCCGGTAATCCGTATTTGGT (site TGGTAGGCTAC) | 0.00942
TGCTAGGCATGGACCGGTTTTCCCGGTAATCCGTATTTGGT (site TGTTAGGCTAC) | 0.026
TGCTAGGCATGGACCGGTTTTCCCGGTAATCCGTATTTGGT (site TTCTAGGCTAC) | 0.0121
TGCTAGTCATGGACCGGTTTTCCCGGTAATCCGTATTTGGT (site TGCTAGACTAC) | 0.00505
TGCTAGTCATGGACCGGTTTTCCCGGTAATCCGTATTTGGT (site TGCTAGCCTAC) | 0.0102
TGCTAGTCATGGACCGGTTTTCCCGGTAATCCGTATTTGGT (site TGCTAGGCTAC) | 0.00963
TGCTAGTCATGGACCGGTTTTCCCGGTAATCCGTATTTGGT (site TGCTAGTCTAC) | 1.07
TGCTCAGCATGGACCGGTTTTCCCGGTAATCCGTATTTGGG (site AGCTCAGCTCC) | 0.0267
TGCTCAGCATGGACCGGTTTTCCCGGTAATCCGTATTTGGG (site CGCTCAGCTCC) | 0.0151
TGCTCAGCATGGACCGGTTTTCCCGGTAATCCGTATTTGGG (site GGCTCAGCTCC) | 0.0391
TGCTCAGCATGGACCGGTTTTCCCGGTAATCCGTATTTGGG (site TGCTCAGCTCC) | 0.00921
TGCTCGGCATGGACCGGTTTTCCCGGTAATCCGTATTTGAT (site TGCTCGGCTAT) | 0.54
TGCTCGGCATGGACCGGTTTTCCCGGTAATCCGTATTTGGT (site TGCTAGGCTAC) | 0.00732
TGCTCGGCATGGACCGGTTTTCCCGGTAATCCGTATTTGGT (site TGCTCGGCTAC) | 0.0236
TGCTCGGCATGGACCGGTTTTCCCGGTAATCCGTATTTGGT (site TGCTGGGCTAC) | 0.00677
TGCTCGGCATGGACCGGTTTTCCCGGTAATCCGTATTTGGT (site TGCTTGGCTAC) | 0.00594
TGCTGAGCATGGACCGGTTTTCCCGGTAATCCGTATTTGAT (site TGCTGAGCTAT) | 1.36
TGCTTCGCATGGACCGGTTTTCCCGGTAATCCGTATTTGTC (site TGCTTCGCTGA) | 0.542
TGGAATACATGGACCGGTTTTCCCGGTAATCCGTATTTGCA (site TAGAATACTTG) | 0.91
TGGAATACATGGACCGGTTTTCCCGGTAATCCGTATTTGCA (site TCGAATACTTG) | 0.55

Sequence | recombinant UMI read abundance (log10)
TGGAATACATGGACCGGTTTTCCCGGTAATCCGTATTTGCA (site TGGAATACTTG) | 1.86
TGGAATACATGGACCGGTTTTCCCGGTAATCCGTATTTGCA (site TTGAATACTTG) | 0.00597
TGGAATCCATGGACCGGTTTTCCCGGTAATCCGTATTTGTG (site CGGAATCCTAA) | 0.00353
TGGAATCCATGGACCGGTTTTCCCGGTAATCCGTATTTGTG (site TGGAATCCTCA) | 0.604
TGGAATGCATGGACCGGTTTTCCCGGTAATCCGTATTTGTT (site CGGAATCCTAA) | 0.00325
TGGAATGCATGGACCGGTTTTCCCGGTAATCCGTATTTGTT (site TGGAATGCTAA) | 1.71
TGGACACCATGGACCGGTTTTCCCGGTAATCCGTATTTGAC (site TGAACACCTGT) | 0
TGGACACCATGGACCGGTTTTCCCGGTAATCCGTATTTGAC (site TGCACACCTGT) | 0
TGGACACCATGGACCGGTTTTCCCGGTAATCCGTATTTGAC (site TGGACACCTGT) | 0
TGGACACCATGGACCGGTTTTCCCGGTAATCCGTATTTGAC (site TGTACACCTGT) | 0
TGGAGTGCATGGACCGGTTTTCCCGGTAATCCGTATTTGAC (site TGGAGTGCTGT) | 2.21
TGGATACCATGGACCGGTTTTCCCGGTAATCCGTATTTGTT (site TGGATACCTAA) | 0
TGGATGACATGGACCGGTTTTCCCGGTAATCCGTATTTGCA (site AGGAAGACTTG) | 0.54
TGGATGACATGGACCGGTTTTCCCGGTAATCCGTATTTGCA (site TGGATGACTTG) | 2.44
TGGATGTCATGGACCGGTTTTCCCGGTAATCCGTATTTGAA (site TGGATGTCTTT) | 2.11
TGGCAAGCATGGACCGGTTTTCCCGGTAATCCGTATTTGTC (site TGGCAAGCTGA) | 0
TGGCCCGCATGGACCGGTTTTCCCGGTAATCCGTATTTGGC (site TGGCCAGCTGC) | 0
TGGCCCGCATGGACCGGTTTTCCCGGTAATCCGTATTTGGC (site TGGCCCGCTGC) | 0.649
TGGCCCGCATGGACCGGTTTTCCCGGTAATCCGTATTTGGC (site TGGCCGGCTGC) | 0
TGGCCCGCATGGACCGGTTTTCCCGGTAATCCGTATTTGGC (site TGGCCTGCTGC) | 0
TGGCCGACATGGACCGGTTTTCCCGGTAATCCGTATTTGGG (site TGGCCGACTCC) | 0
TGGCCGCCATGGACCGGTTTTCCCGGTAATCCGTATTTGGC (site TGGCCGACTGC) | 0.0204
TGGCCGCCATGGACCGGTTTTCCCGGTAATCCGTATTTGGC (site TGGCCGCCTGC) | 0
TGGCCGCCATGGACCGGTTTTCCCGGTAATCCGTATTTGGC (site TGGCCGGCTGC) | 0
TGGCCGCCATGGACCGGTTTTCCCGGTAATCCGTATTTGGC (site TGGCCGTCTGC) | 0

Sequence | recombinant UMI read abundance (log10)
TGGCCGGCATGGACCGGTTTTCCCGGTAATCCGTATTTGGC (site AGGCCGGCTGC) | 0
TGGCCGGCATGGACCGGTTTTCCCGGTAATCCGTATTTGGC (site CGGCCGGCTGC) | 0
TGGCCGGCATGGACCGGTTTTCCCGGTAATCCGTATTTGGC (site GGGCCGGCTGC) | 0
TGGCCGGCATGGACCGGTTTTCCCGGTAATCCGTATTTGGC (site TAGCCGGCTGC) | 0
TGGCCGGCATGGACCGGTTTTCCCGGTAATCCGTATTTGGC (site TCGCCGGCTGC) | 0
TGGCCGGCATGGACCGGTTTTCCCGGTAATCCGTATTTGGC (site TGACCGGCTGC) | 0
TGGCCGGCATGGACCGGTTTTCCCGGTAATCCGTATTTGGC (site TGCCCGGCTGC) | 0
TGGCCGGCATGGACCGGTTTTCCCGGTAATCCGTATTTGGC (site TGGACGGCTGC) | 0
TGGCCGGCATGGACCGGTTTTCCCGGTAATCCGTATTTGGC (site TGGCAGGCTGC) | 0
TGGCCGGCATGGACCGGTTTTCCCGGTAATCCGTATTTGGC (site TGGCCAGCTGC) | 0
TGGCCGGCATGGACCGGTTTTCCCGGTAATCCGTATTTGGC (site TGGCCCGCTGC) | 0
TGGCCGGCATGGACCGGTTTTCCCGGTAATCCGTATTTGGC (site TGGCCGACTGC) | 0
TGGCCGGCATGGACCGGTTTTCCCGGTAATCCGTATTTGGC (site TGGCCGCCTGC) | 0
TGGCCGGCATGGACCGGTTTTCCCGGTAATCCGTATTTGGC (site TGGCCGGCTAC) | 0.0414
TGGCCGGCATGGACCGGTTTTCCCGGTAATCCGTATTTGGC (site TGGCCGGCTCC) | 0.0175
TGGCCGGCATGGACCGGTTTTCCCGGTAATCCGTATTTGGC (site TGGCCGGCTGA) | 0
TGGCCGGCATGGACCGGTTTTCCCGGTAATCCGTATTTGGC (site TGGCCGGCTGC) | 0.862
TGGCCGGCATGGACCGGTTTTCCCGGTAATCCGTATTTGGC (site TGGCCGGCTGG) | 0
TGGCCGGCATGGACCGGTTTTCCCGGTAATCCGTATTTGGC (site TGGCCGGCTGT) | 0
TGGCCGGCATGGACCGGTTTTCCCGGTAATCCGTATTTGGC (site TGGCCGGCTTC) | 0.00718
TGGCCGGCATGGACCGGTTTTCCCGGTAATCCGTATTTGGC (site TGGCCGTCTGC) | 0
TGGCCGGCATGGACCGGTTTTCCCGGTAATCCGTATTTGGC (site TGGCCTGCTGC) | 0
TGGCCGGCATGGACCGGTTTTCCCGGTAATCCGTATTTGGC (site TGGCGGGCTGC) | 0
TGGCCGGCATGGACCGGTTTTCCCGGTAATCCGTATTTGGC (site TGGCTGGCTGC) | 0
TGGCCGGCATGGACCGGTTTTCCCGGTAATCCGTATTTGGC (site TGGGCGGCTGC) | 0
